Results taken from US6632829B2, “Sulfonamides and derivatives thereof that modulate the activity of endothelin” (Texas Biotechnology Corp., priority 1996, dated 2003).

Assays:
[1] = tested on: Pulmonary Hypertension model; assay: Pulmonary Hypertension model; assay type: in vivo, rat; set-up: key: ++: effective at 5 mg/kg; −: no effect at 5 mg/kg; +: effective at 15 mg/kg
Experimental: As used herein, efficacy refers to the maximal effect that can be produced by a compound. Efficacy can be determined by methods known to those of skill in the art. For example, it can be determined by the properties of the compound and its receptor-effector system and is reflected in the plateau of the concentration-effect curve. In vivo efficacy refers to efficacy which is determined in an animal model. For example, in vivo efficacy of the compounds described herein can be determined by hypoxia-induced pulmonary hypertension in rat. See, e.g., DiCarlo et al. (1995) Am. J. Physiol. 269:[…]-[…]. Table 2 lists oral half-life, bioavailability, and in vivo activity of selected exemplary compounds. The in vivo activity was measured in a pulmonary hypertension model and is a measure of the activity of the compounds at selected dosages.

hypertensive rat model = assay: Deoxycorticosterone acetate (DOCA)-salt hypertensive rat model; assay type: in vivo
Experimental: Selected compounds disclosed herein have been tested for activity in the deoxycorticosterone acetate (DOCA)-salt hypertensive rat model. To perform these tests, silastic MDX4-4210 elastomer implants containing 47 mg (DOCA) were prepared according to the method of Ornmsbee et al. ((1973) the J. Pharm. Sci. 62:255-257). Briefly, DOCA is incorporated into silicon rubber implants for sustained release. To prepare the implants the DOCA is incorporated into unpolymerized silicone rubber, catalyst is added and the mixture is cast in a hemicylindrical shape.
Sprague Dawley rats (7-8 weeks old) were unilaterally nephrectomized under ketamine anesthesia and a DOCA-implant was placed on the left lateral dorsal abdomen of the animal. The rats were allowed to recover for three weeks. During recovery they were permitted free access to normal rat chow and 0.9% NaCl drinking solution in place of drinking water. The rats develop hypertension within 3 weeks. […]
On the day of experimentation, catheters were inserted under brevital anesthesia into the right femoral artery for measurement of blood pressure, and into the right femoral vein for administration of a selected compound. The animals were placed in a restrainer and allowed to recover for a minimum of 60 min or until a steady mean arterial blood pressure was recorded. […] Blood pressure was recorded continuously for a further 10 hrs.

In the case of `Cc1cc(C)c(NC(=O)c2sccc2S(=O)(=O)Nc2onc(C)c2Cl)c(C)c1O` [N-(4-chloro-3-methyl-5-isoxazolyl)-2-(3-hydroxy-2,4,6-trimethylphenylaminocarbonyl)thiophene-3-sulfonamide], the “in vivo Efficacy” value [1] is reported as “++” and the “decrease of blood pressure” value (hypertensive rat model) is reported as “effective in decreasing blood pressure”.
